These results are taken from patent US9399790B2, “Stable NAD/NADH derivatives” (Roche Diabetes Care, Inc., priority 2006, dated 2016).

Data set [1] deals with T1, glucose dehydrogenase (GlucDH) (Bacillus subtilis, UniProt P12310). The experiment in a line: Glucose dehydrogenase (GlucDH) activity assay with NAD derivative as cofactor. Format: biochemical. Conditions: for U/ml: GlucDH 0.002 mg/ml (NAD). As to the method:
In order to examine the role of pNAD as a cofactor for glucose dehydrogenase (GlucDH), a glucoseDH activity assay in 0.1 M Tris/0.2 M NaCl (pH 8.5) buffer was carried out. The concentration of glucose was 80 mM. pNAD and NAD concentrations of 0.05-0.5 mM were used. To this, 10 mg/ml (pNAD) or 0.002 mg/ml (NAD) [83 or 0.017 μM respectively] GlucDH was added. The assay was carried out at room temperature and the enzymatic reaction was monitored by recording absorption spectra at regular time intervals. The values shown in table 1 refer to an absorption measurement after 4 min.
A glucose dehydrogenase activity assay for cNAD compared to NAD was carried out as described under B) for pNAD. For this purpose glucose dehydrogenase concentrations of […] and 0.002 mg/ml (NAD) [0.83 and 0.017 μM respectively] were used.

A short description of data set [2]: Examination of the stability of carbaNAD (stressing in solution, HPLC). The following applies: 10 mM solution, pH 8, 0.1 M potassium phosphate buffer, 8° C. and 37° C., after 0.25, 75 and 175 h. In kind it is physicochemical. As to the method: A 10 mM solution of carbNAD and/or NAD is stressed at pH 8 in 0.1 M potassium phosphate buffer. The content is determined by means of HPLC chromatography after 0.25, 75 and 175 h.
Buffer A: 100 mM KHPO4+10 mM tetrabutylammonium hydrogen sulfate, pH 6.9 buffer B: buffer A+acetonitrile 1:1 flow rate 1.0 ml/min detection: 254 nm […]
gradient: in 40 min to 35% buffer B, hold for 2 min and then change to 0% buffer A within 3 min.

The target of data set [3] is T1, glucose dehydrogenase (GlucDH). The experiment in a line: Glucose dehydrogenase (GlucDH) activity assay with NAD derivative as cofactor. Format: biochemical. The following applies: 0.05 mM (p)NAD; 80 mM glucose; 0.1 M Tris/0.2 M NaCl pH 8.5; room temperature; absorption after 4 min; GlucDH 0.02 mg/ml (NAD), 10 mg/ml (pNAD).
A short description of data set [4]: Investigation of the stability of pNAD (incubation at 50° C., HPLC). In kind it is physicochemical. Conditions: 0.15 M KPO4, 1 M NaCl buffer (pH 7.0). As to the method: In order to examine the stability of pNAD compared to NAD, the same amounts of NAD and pNAD were each taken up in 0.15 M KPO4, 1 M NaCl buffer (pH 7.0) and incubated at 50° C. The decomposition of NAD and/or pNAD were monitored by HPLC.

[5] abbreviates: 0.05 mM (c)NAD, relative to NAD = 100.
[6] abbreviates: 0.05 mM (p)NAD, relative to NAD = 100, 80 mM glucose, pH 8.5, after 4 min.
The mark [7] stands for this setting: 0.1 mM (c)NAD, relative to NAD = 100.
Where [8] appears, read: 0.4 mM (p)NAD, relative to NAD = 100, 80 mM glucose, pH 8.5, after 4 min.

T1 sequence (P12310 whole entry): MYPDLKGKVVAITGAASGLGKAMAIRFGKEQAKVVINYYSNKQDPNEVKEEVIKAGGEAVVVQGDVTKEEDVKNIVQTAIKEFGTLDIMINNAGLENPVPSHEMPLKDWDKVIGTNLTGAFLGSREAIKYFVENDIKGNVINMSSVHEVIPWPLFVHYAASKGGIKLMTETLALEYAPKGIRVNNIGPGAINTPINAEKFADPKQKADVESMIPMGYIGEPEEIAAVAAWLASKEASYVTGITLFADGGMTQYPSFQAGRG

`NC(=O)c1ccc[n+]([C@@H]2O[C@H](COP(=O)([O-])OP(=O)(O)OC[C@H]3O[C@@H](n4cnc5c(N)ncnc54)[C@H](O)[C@@H]3O)[C@@H](O)[C@H]2O)c1` [NAD, nicotinamide adenine dinucleotide, reference compound]: the activity at 50 µM in data set [1] (setting [5]) and in data set [1] (setting [6]) was 100% throughout. In addition, the activity at 100 µM in data set [1] (setting [7]) stood at 100%. The same compound came in with an activity at 400 µM in data set [1] (setting [8]) of 100%.
For the compound `NC(=O)c1ccc[n+]([C@@H]2C[C@H](COP(=O)([O-])OP(=O)(O)OC[C@H]3O[C@@H](n4cnc5c(N)ncnc54)[C@H](O)[C@@H]3O)[C@@H](O)[C@H]2O)c1` [cNAD, carbaNAD], the “stability (occurrence of decomposition products, HPLC area percentages)” value in data set [2] is listed as “very stable compared to NAD”. The U/ml in data set [1] (0.05 mM (c)NAD, assay as for pNAD, 0.1 mg/ml (cNAD)) is on record as 2.7 U/ml; in data set [1] (0.1 mM (c)NAD, assay as for pNAD, 0.1 mg/ml (cNAD)) it was 5.3 U/ml. Also, the “% activity” value in data set [1] (setting [5]) is reported as 0.63%; in data set [1] (setting [7]), 0.95%.
In the case of `NC(=O)c1ccc[n+]([C@@H]2CN[C@H](COP(=O)([O-])OP(=O)(O)OC[C@H]3O[C@@H](n4cnc5c(N)ncnc54)[C@H](O)[C@@H]3O)C2)c1` [pNAD, Pyrrolidinyl-NAD], the U/ml in data set [3] was 0.00017 U/ml; in data set [1] (0.4 mM (p)NAD, 80 mM glucose, 0.1 M Tris/0.2 M NaCl pH 8.5, room temperature, absorption after 4 min, 10 mg/ml (pNAD)), 0.0024 U/ml. Besides, in data set [4], the “stability (percentage areas of (p)NAD compared to time zero, HPLC)” value is recorded as “very stable compared to NAD”. In addition, the activity at 50 µM in data set [1] (setting [6]) came to 3e-05%. In addition, the activity at 400 µM in data set [1] (setting [8]) came to 0.00015%.
